Measured values reported in patent publication US6649628B1, “N-[2-hydroxy-3-(1-piperidinyl)propoxy]pyridine-1-oxide-3-carboximidoyl chloride and its use in the treatment of insulin resistance” (Biorex Kutato es Fejleszto RT, priority 1999, dated 2003).

Tests used:
Assay type in all cases: in vivo, rat
STZ-diabetic Wistar rats [1] = assay: Experiment 3: diabetic autonomous neuropathy after 1 month of treatment; details: daily 20 mg/kg single dose
Method: The experiments were performed under anesthesia achieved by administering 60 mg/kg ip. pentobarbital sodium (Nembutal, Sanofi, Phylaxia). After this, an intratracheal tube or polyethylene canula was inserted into the fermoral artery and vein. The arterial catheter was connected to a pressure transducer for the simultaneous measurement of systolic and diastolic blood pressure (online automatic measuring and forwarding system, with a Haemosys computer program). After 20 minutes of equillibration period, the following substances were administered intravenously: Noradrenalin, 5 μg/kg iv.—Isoproterenol 0.4 μg/kg iv.—N.vagus stimulation (2 V, duration: 500 μsec, delay: 1 msec). The effects of the substances were monitored for 10 minutes.

STZ diabetic Wistar rats = assay: Preliminary test: N-oxide derivatives of bimoclomol on motor and sensor nerve conduction velocity deficit; details: 20 mg/kg
Method: In a preliminary test the effectiveness of the three N-oxide derivatives of bimoclomol on motor and sensor neuropathy in STZ diabetic Wistar rats were studied. The effectiveness of the three bimoclomol N-oxide derivatives in improving the peripheral motor and sensor nerve conduction velocity deficit caused by streptozotocine-induced diabetes was determined with use of the method described in detail in Experiment 2.
(§1) (Graphpad Instat, San Diego, Calif.).

STZ-diabetic Wistar rats [2] = assay: Experiment 5: urinary protein loss caused by diabetic nephropathy after 1-month treatment
Method: For the 24-hour period of urine collection, the animals were placed in individual metabolic cages. During this period they were given water ad libitum but no food. The latter measure was necessary to prevent possible contamination by the protein content of the food. Urine was collected in calibrated glass containers, in which Thymol crystal (Reanal 3135-1-08-38) was placed to prevent bacterial contamination.
Before measurement, the urine samples were centrifuged (2500 rpm) and filtered through a paper filter (Whatmann 1). If necessary, they were stored at −20° C. until measurement.
The total protein content of the urine was determined by the Bradford staining method (Sigma B-6916, St. Louis, Mo.), and color intensity was detected by spectrophotometry (Hitachi-U-3200).

STZ-diabetic Wistar rats [3] = assay: Experiment 2: peripheral neuropathy, nerve conduction velocity after 1-month treatment
Source text: as §1

STZ-diabetic Wistar rats [4] = assay: Experiment 4: histological alterations of early diabetic retinopathy after 1 month of treatment; details: 1 month
Method: Photographs and slide positives were prepared of representative samples.
The given value for negative cases was 0.1. A Box and Whisker plot graph was also prepared.

[5] = system: obese, insulin resistant, hyperinsulinaemic Zucker fa/fa rats; assay: Experiment 1: carbohydrate metabolism (fasting glucose/insulin, ip glucose tolerance test) after 2-month treatment
Method: In the experiments so-called Zucker fa/fa rats (Charles River Laboratories Inc.) were used. In […] animals, obesity, insulin resistance, high blood insulin level, impaired glucose tolerance and hypertriglyceridaemia result from hypothalamic leptin receptor mutation. Due to the above characteristics, this is an accepted model of early type 2 diabetes.
The animals were placed in individual metabolic cages for 24 hours at the beginning of the study, and after 1 or 2 months of treatment for 24 hours of urine collection.
The animals were given either the test substances or physiological saline solution by gavage for control once a day between weeks 14-22.
Biochemical parameters of the blood and the urine were measured by a Kodak Ectachem 700 automatic analyzer. The total protein level of the urine was determined spectrophotometrically with the use of Bradford staining (Hitachi U-3200) at 595 nm. The insulin concentration of the serum was determined by the RIA method, using rat anti-insulin antibodies.
Systolic, diastolic blood pressure and heart rate were measured weekly on the tails of the rats (so-called tail cuff method) by a Letica 200 automatic analyzer. After two months of treatment, the level of glucose tolerance was determined by the intraperitoneal glucose tolerance test (2 g/kg ip.).

[6] = 1 month, isoproterenol 0.4 μg/kg iv.
[7] = 20 mg/kg p.os once a day, 1 month
[8] = 20 mg/kg p.os daily, 2-month treatment
[9] = intraperitoneal glucose tolerance test
[10] = ip glucose tolerance test 2 g/kg, AUC 0-60 minutes, 20 mg/kg p.os daily, 2-month treatment

O=C(O)/C=C\C(=O)O.OC(CON=C(Cl)c1cccnc1)CN1CCCCC1 (racemic) [bimoclomol, maleate of O-(3-piperidino-2-hydroxy-1-propyl)-3-pyridyne hydroxymic acid-chloride, reference compound]
effect on pathological deviations resulting from autonomous neuropathy (STZ-diabetic Wistar rats [1]): significantly reduced
Increased negative chronotropic effect on vagus stimulation (STZ-diabetic Wistar rats [1]; 1 month): ↑ (corrects)
Reduced hypotension on vagus stimulation (STZ-diabetic Wistar rats [1]; 1 month): ↑ (corrects)
Systemic arterial hypotension (deviation due to diabetes) (STZ-diabetic Wistar rats [1]; 1 month): ↑ (corrects)
Weight loss (deviation due to diabetes) (STZ-diabetic Wistar rats [1]; 1 month): ↑ (corrects)
Reduced IS induced positive chronotropic effect (STZ-diabetic Wistar rats [1]; [6]): ↑ (corrects)
Reduced IS induced systemic arterial hypotension (STZ-diabetic Wistar rats [1]; [6]): ↑ (corrects)
Reduced NA induced systemic arterial pressure response (STZ-diabetic Wistar rats [1]; 1 month, noradrenalin 5 μg/kg iv.): ↑ (corrects)
Improvement of nerve conduction velocity (%) motor (MNCV) (STZ diabetic Wistar rats): 72,4%
Improvement of nerve conduction velocity (%) sensor (SNCV) (STZ diabetic Wistar rats): 66,9%
24-hour Urinary Protein Loss Mean ± SE (STZ-diabetic Wistar rats [2]; 20 mg/kg daily, 1 month, series 1): 3.66 ± 1.39 mg/24 h
effect on STZ-diabetes-induced urinary protein loss (STZ-diabetic Wistar rats [2]; Bimoclomol 20 mg/kg, Compound-A 10 mg/kg, (+) enantiomer 5 mg/kg daily): significantly reduced
MNCV (STZ-diabetic Wistar rats [3]; [7]): 57.4 ± 0.2 m/s
MNCV improvement (STZ-diabetic Wistar rats [3]; [7]): 79.7%
SNCV (STZ-diabetic Wistar rats [3]; [7]): 58.5 ± 0.6 m/s
SNCV improvement (STZ-diabetic Wistar rats [3]; [7]): 77.9%
effect on motor (MNCV) and sensor (SNCV) nerve conduction velocities (STZ-diabetic Wistar rats [3]; bimoclomol 20 mg/kg, Compound A 5 mg/kg once a day): significantly improved
Score values Improvement % (STZ-diabetic Wistar rats [4]; 20 mg/kg daily): 61.3%
Score values Mean ± SE (retinopathy histology) (STZ-diabetic Wistar rats [4]; 20 mg/kg daily): 5.185 ± 1.019
effect on diabetic retinopathy induced pathological histological alterations (STZ-diabetic Wistar rats [4]; Compound A 5 mg/kg, bimoclomol 20 mg/kg daily): significantly improved
effect on fasting blood glucose ([5]; 20 mg/kg p.os daily): significantly reduced
effect on fasting insulin concentration ([5]; 20 mg/kg p.os daily): did not effect
Fasting Blood Glucose (mean ± SE) [5, 8]: 8.179 ± 0.316 mmol/L
Fasting Insulin (mean ± SE) [5, 8]: 29.362 ± 9.211 ng/mL
effect on AUC of insulin [5, 9]: had no effect
effect on area under the blood glucose curve (AUC) [5, 9]: neither bimoclomol, nor Compound A effected
Blood Glucose (AUC) (mean ± SE) [5, 10]: 1286.86 ± 131.59
Insulin (AUC) (mean ± SE) [5, 10]: 2337.71 ± 590.49
effect on peripheral insulin resistance ([5]; summary of Experiment 1): does not
